In data set [1] the test system is MRSA USA300. As to the kind of experiment: Therapeutic index calculation (IC50 of mammalian cell lines / MIC). As to conditions: ratio of average IC50 for A549 and HEK293 to MIC in MRSA USA300. The protocol:
(§1) The biocompatibility of charged pi-conjugated compounds with mammalian cell lines was evaluated by studying the effects of different charged pi-conjugated compound concentrations on the viability of two mammalian cell lines: A549 (epithelial-like lung cells) and HEK293 (epithelial-like kidney cells). […] Dose-response curves were used to determine IC50 values, that is, the concentration of charged pi-conjugated compound needed to inhibit cell viability by 50%. […] The MIC of MRSA USA300 was used to calculate the therapeutic index. MRSA USA300 is a major contributor to community-associated MRSA infections, including skin and soft tissue infections, bacteraemia, endocarditis, bone and joint infections and nosocomial infections. […]
(§2) The biocompatibility of charged pi-conjugated compounds with mammalian cell lines was assessed by determining their impact on the mitochondrial activity of human alveolar basal epithelial adenocarcinoma cells (A549) and human embryonic kidney cells (HEK293T) cells, using the Presto Blue assay according to the manufacturer's protocol. […] After 8 h, Presto Blue cell viability reagent (Thermo Fisher Scientific, Waltham, MA, USA) was added to the cells, and after 2 h of incubation, fluorescence was measured using a microplate reader (BioTek Instruments Inc., Winooski, VT, USA). […] The therapeutic index was calculated from the ratio between IC50 and the MIC.

Data set [2] has as its system A549 (epithelial-like lung cells). As to the kind of experiment: Presto Blue viability assay, A549. The data set is classed as cell-based. As to conditions: Homo sapiens, 8 h treatment, read-out: IC50 (concentration needed to inhibit cell viability by 50%). The procedure:
as §1, §2

The test system of data set [3] is MRSA USA300. As to the kind of experiment: In vivo anti-infective activity in G. mellonella infected with MRSA. Details: species or system Galleria mellonella. The settings on record: 10-80 μM; vehicle-treated infected worms one day. The protocol: The in vivo anti-infective capacity of charged pi-conjugated compounds was evaluated in the invertebrate model G. mellonella infected with MRSA USA300. The survival curves shown in FIG. 21 illustrate the efficacy of two charged pi-conjugated compounds, BL 248 and BL 273, against MRSA USA300 infection in G. mellonella. With increasing concentrations of both molecules, there was a discernible improvement in survival compared with the vehicle-treated control group.
To evaluate the in vivo anti-infective activity of charged pi-conjugated compounds, MRSA USA300 was cultured overnight in tryptic soy broth and diluted to ~2×10^7 CFU mL^−1 in sterile phosphate-buffered saline based on OD600. Cohorts of five G. mellonella larvae (~300 mg each) were injected with 10 μL of the diluted bacterial suspension (2×10^5 […]) via the last left proleg, following larvae sterilization with 70% ethanol. One hour post-infection, the larvae were injected with increasing concentrations of charged pi-conjugated compounds or 1% DMSO (in PBS) as a negative control. Uninfected larvae were also used as controls. Larvae were incubated at 37° C., and survival was monitored afterward. Death was defined by complete melanization of the larval body and lack of movement in response to touch.

For the next data set, the system named is Gram-positive strains. The data set can be described thus: MIC / MIC50 by broth microdilution in panel of Gram-positive strains. As to conditions: MIC50 over all Gram-positive strains tested (Table 2). Type of data set: cell-based. The protocol:
Antibacterial activity was assessed by determining the minimal inhibitory concentration (MIC) and the minimal bactericidal concentrations (MBC) and by monitoring time-dependent bacterial killing of exponentially growing cells. Bacterial cell suspensions (OD600≈0.02 in cation-adjusted Muller-Hinton Broth) were treated with increasing concentrations of the different molecules. The minimal inhibitory concentration (MIC) was defined as the minimal concentration of the molecule resulting in complete bacterial growth arrest. The minimal bactericidal concentration (MBC) was defined as the lowest concentration of the molecule that killed 99.9% of the inoculum. A molecule was determined to be bactericidal if the ratio of the MBC to the MIC was less than 4 to 6. […] In M. smegmatis, the antibacterial activity of charged pi-conjugated compounds was generally lower.
The MIC values for all Gram-positive strains tested (Table 2) were used to calculate the MIC50, i.e., the minimum inhibitory concentration needed to inhibit the growth of 50% of the tested isolates (FIG. 5A). […] When the average MIC50 values were evaluated, the most susceptible bacterial genera were Streptococcus sp., followed by Staphylococcus sp. In contrast, Propionibacterium sp. had the highest average MIC50 (FIG. 5B).
The broth microdilution method was used to determine the MIC of charged pi-conjugated compounds according to the CLSI guidelines. Charged pi-conjugated compound stock solutions (16 mM) were prepared in dimethyl sulfoxide (DMSO). Serial twofold dilutions of the charged pi-conjugated compounds were freshly prepared using the appropriate liquid media (Table 2), and 100 μL of each dilution was added to the appropriate wells of 96-well microtiter plates. The bacterial inoculum was further diluted in liquid media, and 100 μL was added to each well, resulting in a final cell density of ≈5×10^5 CFU mL^−1. […] A molecule was determined to be bactericidal if the ratio of the MBC to the MIC was less than 4 to 6. […]

Data set [4] concerns HEK293 (epithelial-like kidney cells). The data set can be described thus: Presto Blue viability assay, HEK293. Type of data set: cell-based, human. The settings on record: Homo sapiens, HEK293, 8 h, read-out: IC50 (concentration needed to inhibit cell viability by 50%). The procedure: as §1, §2
Data set [5] relates to HEMa (normal melanocytes). As to the kind of experiment: Toxicity on A375 melanoma versus normal melanocytes (HEMa arm). The data set is classed as cell-based. The settings on record: for safety for normal skin melanocyte cells (HEMa): 1 μM concentration. The procedure:
(§3) FIG. 32 provides evidence of toxicity of charged pi-conjugated compounds on HEMa (normal melanocytes) versus on A375 melanoma using 1 day of incubation versus 2 days of incubation. BL-204, BL-141-2, BL-304 are aminocyanines. In contrast, TS-1-32 and GL-261-2 are two names for a carboxycyanine compound shown as GL-261-2 in FIG. 23.
This characterization is accurate for long exposures (~24 h) and in 200,000 cells/mL. The limits of toxic concentration (referenced herein as a therapeutic window) can vary with the exposure time and total cell number present in the test. For example, 1 μM concentration of charged pi-conjugated compounds are safe when used at 30 min exposure in the cell culture at 200,000 cells/mL. However, about higher than 2 μM cyanine becomes toxic (~8 μM) even at short exposure time (~30 min) for 200,000 cells/mL. In contrast, for a solid tumor this lethal concentration is expected to be higher since hundreds of millions of cells are contained in a small solid tumor. The dose may be calibrated and normalized by the total number of cells. The correct therapeutic window to kill cancer cells should be expressed in μg of charged pi-conjugated compound per 1 million of cells or ug of charged pi-conjugated compound per gram of cells. […] Therefore, the presently disclosed charged pi-conjugated compounds may be useful in a clinical application in patients where the charged pi-conjugated compounds could protect the normal tissue and selectively cause toxicity to cancer cells.

Data set [6] is described as follows: Clonogenic assay cytotoxicity in A375 cells without light. Type of data set: cell-based, human. The settings on record: human. The protocol:
FIGS. 28A-28B provide a summary of the evidence of the cytotoxicity of charged pi-conjugated compounds without light. Toxicity was measured using clonogenic assay with 7 hours of incubation (contact time between molecules and A375 cells) and 7 days for colony formation. (FIG. 28A) The lethal concentration of the cyanine molecules to kill 50% of the A375 cells (Tox LC50) without light activation. (FIG. 28B) Chemical structure of exemplary charged pi-conjugated compounds. On average, 300 cells equal to 300 colonies were seeded and analyzed for each data point.
Both properties were measured using clonogenic assay with 7 hours of incubation (contact time between molecules and A375 cells) and 7 days for colony formation. 300 cells were seeded and analyzed for each data point.
More cytotoxicity tests were conducted in some additional molecules and using clonogenic assay for cell viability (FIG. 28). A375 cells were exposed to charged pi-conjugated compounds for 7 hours, in contrast to the previously presented assays which were conducted with crystal violet assay and 2 days of exposure. The data points showing the cytotoxicity quantification for each individual molecule are presented in FIG. 29, with resulting IC50 values summarized in Table 4.

The test system of a further data set is A375 melanoma. The data set can be described thus: Toxicity on A375 melanoma versus normal melanocytes (A375 arm). The settings on record: 1 μM concentration. Type of data set: cell-based, human. The protocol: as §3
This characterization is accurate for long exposures (~24 h) and in 200,000 cells/mL. The limits of toxic concentration (referenced herein as a therapeutic window) can vary with the exposure time and total cell number present in the test. For example, 1 μM concentration of charged pi-conjugated compounds are safe when used at 30 min exposure in the cell culture at 200,000 cells/mL. However, about higher than 2 μM cyanine becomes toxic (~8 μM) even at short exposure time (~30 min) for 200,000 cells/mL. In contrast, for a solid tumor this lethal concentration is expected to be higher since hundreds of millions of cells are contained in a small solid tumor. The dose may be calibrated and normalized by the total number of cells. The correct therapeutic window to kill cancer cells should be expressed in μg of charged pi-conjugated compound per 1 million of cells or ug of charged pi-conjugated compound per gram of cells. […]

Data set [7] is described as follows: Crystal violet cytotoxicity test in A375 cells without light activation. As to conditions: human. Type of data set: cell-based, human. The procedure:
The inhibitory concentration of charged pi-conjugated compounds needed to inhibit the cell growth by 50% (toxicity IC50).
Most of the charged pi-conjugated compounds are aminocyanines which are functionalized with alkyl amine group. The charged pi-conjugated compounds were added to cell cultures of A375 cancer cells (human melanoma) and their cytotoxicity was quantified by the crystal violet test and/or clonogenic assays for cell viability. […] The longer the exposure the most cytotoxic the charged pi-conjugated compounds are towards A375 cells. […] The same behavior is observed: the longer the exposure, the more cytotoxic. All molecules presented here are aminocyanines except GL-261-2 which is a carboxyl-cyanine. […] This was the first time a therapeutic window of concentration that can be tuned to selectively kill cancer and/or protect cells was suspected. In finding this therapeutic window concentration and time of exposure are important variables that should be fine tuned.
Based on the finding described above, a larger set of charged pi-conjugated compounds was evaluated for cytotoxicity against A375 cancer cells as shown in FIG. 25 and FIG. 26.
The IC50 is the concentration needed to inhibit the cell viability by 50%. These molecules in FIG. 25 and FIG. 26 were evaluated by crystal violet assay and using 2 days of exposure.

The next data set deals with S. aureus ATCC 25923. As to the kind of experiment: Mutation frequency (rifampin-resistant colonies) on repeated treatment. Type of data set: cell-based, Staphylococcus aureus. The settings on record: frequency of rifampin-resistant colonies.

Results on five compounds are retold here after patent US20260216134A1, “CHARGED PI-CONJUGATED MOLECULES FOR THE TREATMENT OF MICROBIAL INFECTIONS” (priority 2023, published 2026).

Protocol for S. aureus ATCC 25923: In addition, the mutation frequency (assessed as the frequency of rifampin-resistant colonies) of S. aureus ATCC 25923 subjected to repeated treatment with charged pi-conjugated compound or the conventional antibiotic ciprofloxacin was determined.
Mutation frequency was determined using rifampin resistance as a marker. The stored cells were revived overnight in LB broth and then plated on LB agar with and without rifampin (100 mg mL^−1) (Schaaff et al., 2002). The mutation frequency was calculated as the ratio of rifampin-resistant colonies to the total number of colonies.

Take `CN(C)C(=O)CN1c2ccc3ccccc3c2C(C)(C)C1/C=C/C1=CC(=C/C=C2/N(C)c3ccc4ccccc4c3C2(C)C)/CCC1.I` (stereo not shown) [BL 248]: the therapeutic index in the data set on MRSA USA300 [1] is recorded as 9.3. Moreover, in [2], the IC50 was 14700 nM.
Turning to `CN(C)C(=O)CN1/C(=C/C=C2C=C(/C=C/C3=[N+](CC(=O)N(C)C)c4ccc5ccccc5c4C3(C)C)CCC/2)C(C)(C)c2c1ccc1ccccc21.[Br-]` [BL 273, 3-(2-(dimethylamino)-2-oxoethyl)-2-((E)-2-((E)-3-((E)-2-(3-(2-(dimethylamino)-2-oxoethyl)-1,1-dimethyl-1,3-dihydro-2H-benzo[e]indol-2-ylidene)ethylidene)cyclohex-1-en-1-yl)vinyl)-1,1-dimethyl-1H-benzo[e]indol-3-ium], in the data set with MRSA USA300 [3], the “survival of infected worms” value is reported as “three or more days”. Besides, the “antibacterial activity according to MIC50” value with Gram-positive strains is on record as “strongest antibacterial activity”. The IC50 in data set [4] came out at 13700 nM.
In the case of `CN(C)CCCCCC[N+]1=C(/C=C/C2=CC(=C/C=C3/N(C)c4ccc5ccccc5c4C3(C)C)/CCC2)C(C)(C)c2c1ccc1ccccc21.[I-]` [BL-141-2, 3-(6-(dimethylamino)hexyl)-1,1-dimethyl-2-((E)-2-((E)-3-((E)-2-(1,1,3-trimethyl-1,3-dihydro-2H-benzo[e]indol-2-ylidene)ethylidene)cyclohex-1-en-1-yl)vinyl)-1H-benzo[e]indol-3-ium], in [5], the “cell viability of normal skin melanocyte cells” value was “increased the cell viability” and the “safety for normal skin melanocyte cells (HEMa)” value was “safe for normal skin melanocyte cells”. In addition, in [6], the IC50 at 7 h amounted to 400 nM. The “selectivity for killing cancer cells (A375)” value in the data set with A375 melanoma is given as “selective to specifically kill cancer cells”. In data set [7], this compound displayed an IC50 at 2 days of 750 nM.
On the same counts, the results for `CN(C)CC[N+]1=C(/C=C/C2=CC(=C/C=C3/N(C)c4ccc5ccccc5c4C3(C)C)/CCC2)C(C)(C)c2c1ccc1ccccc21.[I-]` [BL-204, 3-(2-(dimethylamino)ethyl)-1,1-dimethyl-2-((E)-2-((E)-3-((E)-2-(1,1,3-trimethyl-1,3-dihydro-2/I-benzo[e]indol-2-ylidene)ethylidene)cyclohex-1-en-1-yl)vinyl)-1H-benzo[e]indol-3-ium] are “increased the cell viability”, “safe for normal skin melanocyte cells”, 220 nM, “selective to specifically kill cancer cells” and 600 nM.
For the compound `O=C(O)c1cn(C2CC2)c2cc(N3CCNCC3)c(F)cc2c1=O` [ciprofloxacin], in the data set with S. aureus ATCC 25923, the “mutation rate across treatment cycles” value is “marked increase across treatment cycles”.
